Source: article PMC6066642 (2018)

Experiments:
[1] = system: hTeloC (DNA, i motif) CCCTAACCCTAACCCTAACCCT; assay: CD melting; settings: Na+ (10 mM sodium phosphate); pH 5.7; 5 equivalents of compound, 10-15 μM DNA
[2] = system: mutTel24 (DNA, G4) TTGGGTTAGGGTTAGGGTTAGGGA; assay: CD melting; settings: K+ (10 mM potassium phosphate); pH 5.7; 5 equivalents of compound, 10-15 μM DNA
[3] = system: hTeloCFID (DNA, i motif) TAACCCTAACCCTAACCCTAACCC; assay: fluorescent intercalator displacement; settings: Na+ (10 mM NaH2PO4); pH 5.7; thiazole orange 2 μM displaced
[4] = system: mutTel24FID (DNA, G4) TTTGGGTTAGGGTTAGGGTTAGGGA; assay: fluorescent intercalator displacement; settings: K+ (10 mM KH2PO4); pH 5.7; thiazole orange 2 μM displaced

SMILES	ΔT1/2 [1]	ΔT1/2 [2]	DC50 [3] [μM]	DC50 [4] [μM]
COc1ccc2cc3[n+](cc2c1OC)CCc1cc2c(cc1-3)OCO2	-0.8 ± 0.5 °C	+12.4 ± 0.5 °C	1.46 ± 5.88E-03	1.26 ± 7.22E-03
O=C1c2c(O)ccc(O)c2C(=O)c2c(NCCNCCO)ccc(NCCNCCO)c21	-9.9 ± 0.5 °C	+4.5 ± 0.5 °C	1.34 ± 6.99E-03	0.95 ± 6.07E-03
NCCOc1cc(C(=O)Nc2cc(OCCN)c3ccccc3n2)nc(C(=O)Nc2cc(OCCN)c3ccccc3n2)c1	+0.8 ± 0.5 °C	+8.8 ± 0.5 °C	18.02 ± 5.89E-02	9.42 ± 3.90E-02
CN(C)c1ccc(Nc2c3ccc(NC(=O)CCN4CCCC4)cc3nc3cc(NC(=O)CCN4CCCC4)ccc23)cc1	-9.2 ± 0.5 °C	+8.9 ± 0.5 °C	0.87 ± 8.08E-04	0.50 ± 1.95E-03

Further lines, results first:

ΔT1/2 [1]	ΔT1/2 [2]	DC50 [3] [μM]	DC50 [4] [μM]	SMILES
-0.3 ± 0.5 °C	+20.6 ± 0.5 °C	–	–	Cc1cc2c3c([n+](C)c4ccc(F)cc4c3c1)-c1cc(F)ccc1N2C
-6.8 ± 0.5 °C	+14.4 ± 0.5 °C	0.95 ± 3.79E-03	0.39 ± 1.42E-03	C[n+]1cc(NC(=O)c2ccc3ccc4ccc(C(=O)Nc5cc6ccccc6[n+](C)c5)nc4c3n2)cc2ccccc21
